Experimental data published in article PMC8371461 (Frontiers in Pharmacology, 2021).

Key:
RIOK2 = target: RIOK2; design: method as in Varin et al., 2015; details: ref Varin et al., 2015; cited from earlier work
HeLa cells = test: LC3B positive autophagosomes, immunofluorescent staining; type: cell-based; details: 10 µM, three days
Procedure: (§1) Cells were fixed with PBS containing 0.5% of para-formaldehyde for 15 min at room temperature. After three washing steps in PBS, cells were permeabilized with PBS containing 0.3% of Triton X-100 (Sigma) for 1 h at room temperature. After washing with PBS three times, cells were incubated overnight with the anti-LC3B antibody in PBS with 1% bovine serum albumin (Sigma) at 4°C. After three washing steps in PBS, cells were incubated with the fluorescent secondary antibody for 90 min at 4°C in PBS with 1% bovine serum albumin. They were then incubated with […] DAPI (Thermofisher) in PBS for 15 min. After washing with PBS, cells were rinsed once in water prior to mounting in the FluorSave reagent (Millipore).
(§2) Depending of these transitory environmental conditions, autophagy can either promote survival or apoptosis ([Degtyarev et al., 2008]). PIK/AKT pathway inhibition has been reported to increase cell autophagy ([Palmieri et al., 2017]). More specifically, PIP4K2C has been described as a down-regulator of autophagy ([Sharma et al., 2019]).

PSC = test: as above; type: cell-based, mouse; details: 10 µM, three days
Procedure: as §1, §2

SMILES	Kd (RIOK2) [nM]	number of LC3B-positive autophagosomes (HeLa cells)	number of LC3B-positive autophagosomes (PSC)
O=C(Cc1ccc(-c2ccccc2)cc1)Nc1ccccn1 [Diphenpyramide]	160		
FC(F)(F)c1ccccc1-c1nc(NCc2cccs2)c2ccccc2n1 [NIH-12848]		confirmed in HeLa cells	
NC(=O)c1nc(Nc2ccccc2)sc1NC(=O)C1CCCCC1 [UNC-3230]		increased	increased
